Source: US20090111801A1, “SUBSTITUTED PYRAZINONE DERIVATIVES FOR USE AS A MEDICINE” (Janssen Pharmaceutica N.V., priority 2006, published 2009)

Legend:
[1] = biological target: T1, hα2A receptor (Homo sapiens, UniProt P08913); test: Radioligand binding experiment for α2A-adrenoceptor ([3H]raulwolscine, CHO cell membranes); conditions: [3H]raulwolscine binding, read-out: h-α2A pIC50 (converted)
T1 construct: expressed in transfected cells; host or cells: CHO cells, stably transfected; membrane preparation
T1 sequence (P08913 1-465): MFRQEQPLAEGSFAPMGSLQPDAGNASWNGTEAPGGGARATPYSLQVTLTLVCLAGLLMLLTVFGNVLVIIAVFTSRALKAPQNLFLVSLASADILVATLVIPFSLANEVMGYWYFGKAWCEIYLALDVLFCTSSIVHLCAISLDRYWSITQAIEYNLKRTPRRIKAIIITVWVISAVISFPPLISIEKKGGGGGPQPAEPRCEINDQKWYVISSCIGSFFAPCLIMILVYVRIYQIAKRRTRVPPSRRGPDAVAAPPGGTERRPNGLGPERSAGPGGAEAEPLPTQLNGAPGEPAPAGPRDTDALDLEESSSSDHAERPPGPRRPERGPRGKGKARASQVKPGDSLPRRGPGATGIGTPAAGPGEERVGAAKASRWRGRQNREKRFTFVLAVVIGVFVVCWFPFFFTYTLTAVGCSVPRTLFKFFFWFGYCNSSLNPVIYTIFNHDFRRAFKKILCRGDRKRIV
Procedure: (§1) The interaction of a compound of Formula (I) with α2-adrenoceptor receptors was assessed in in vitro radioligand binding experiments. In general, a low concentration of a radioligand with a high binding affinity for a particular receptor or transporter is incubated with a sample of a tissue preparation enriched in a particular receptor or transporter or with a preparation of cells expressing cloned human receptors in a buffered medium. During the incubation, the radioligand binds to the receptor or transporter. When equilibrium of binding is reached, the receptor bound radioactivity is separated from the non-bound radioactivity, and the receptor- or transporter-bound activity is counted. The interaction of the test compounds with the receptor is assessed in competition binding experiments. Various concentrations of the test compound are added to the incubation mixture containing the receptor- or transporter preparation and the radioligand. The test compound in proportion to its binding affinity and its concentration inhibits binding of the radioligand. The radioligand used for hα2A and hα2C receptor binding was [^3H]-raulwolscine.
(§2) CHO cells, stabile transfected with human adrenergic-α2A and α2C receptor cDNA, were cultured in Dulbecco's Modified Eagle's Medium (DMEM)/Nutrient mixture Ham's F12 (ratio 1:1)(Gibco, Gent-Belgium) supplemented with 10% heat inactivated fetal calf serum (Life Technologies, Merelbeke-Belgium) and antibiotics (100 IU/ml penicillin G, 100 μg/ml streptomycin sulphate, 110 μg/ml pyruvic acid and 100 μg/ml L-glutamine). One day before collection, cells were induced with 5 mM sodiumbutyrate. Upon 80-90% of confluence, cells were scraped in phosphate buffered saline without Ca^2+ and Mg^2+ and collected by centrifugation at 1500×g for 10 minutes. The cells were homogenised in Tris-HCl 50 mM using an Ultraturrax homogenizer and centrifuged for 10 minutes at 23,500×g. The pellet was washed once by resuspension and rehomogenization and the final pellet was resuspended in Tris-HCl, divided in 1 ml aliquots and stored at −70° C.
(§3) Membranes were thawed and re-homogenized in incubation buffer (glycylglycine 25 mM, pH 8.0). […] Filters were rinsed extensively with ice-cold rinsing buffer (Tris-HCl 50 mM pH 7.4). Filter-bound radioactivity was determined by scintillation counting in a Topcount (Packard, Meriden, Conn.) and results were expressed as counts per minute (cpm). Non-specific binding was determined in the presence of 1 μM oxymetazoline for the hα2A receptor and 1 μM spiroxatrine for hα2C receptor.
(§4) Data from assays in the presence of compound were calculated as a percentage of total binding measured in the absence of test compound. Inhibition curves, plotting percent of total binding versus the log value of the concentration of the test compound, were automatically generated, and sigmoidal inhibition curves were fitted using non-linear regression. The pIC50 values of test compounds were derived from individual curves.

[2] = biological target: T2, hα2C receptor (Homo sapiens, UniProt P18825); test: Radioligand binding experiment for α2C-adrenoceptor ([3H]raulwolscine, CHO cell membranes); conditions: [3H]raulwolscine binding, read-out: h-α2C pIC50 (converted)
T2 construct: expressed in transfected cells; host or cells: CHO cells, stably transfected; membrane preparation
T2 sequence (P18825 1-462): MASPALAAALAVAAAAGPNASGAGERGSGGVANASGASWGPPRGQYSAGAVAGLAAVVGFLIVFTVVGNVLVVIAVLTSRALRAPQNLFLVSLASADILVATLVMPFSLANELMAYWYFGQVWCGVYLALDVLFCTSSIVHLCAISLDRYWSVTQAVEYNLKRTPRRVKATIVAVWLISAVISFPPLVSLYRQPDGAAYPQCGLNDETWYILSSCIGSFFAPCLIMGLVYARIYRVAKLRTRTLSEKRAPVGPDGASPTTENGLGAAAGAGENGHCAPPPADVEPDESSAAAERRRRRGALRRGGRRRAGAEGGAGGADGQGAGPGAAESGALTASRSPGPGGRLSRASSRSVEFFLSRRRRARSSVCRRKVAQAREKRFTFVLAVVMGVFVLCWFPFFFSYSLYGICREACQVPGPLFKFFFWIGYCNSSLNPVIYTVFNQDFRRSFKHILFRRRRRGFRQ
Procedure: as §1, §2, §3, §4

[3] = biological target: T3, 5HT-Transporter (Homo sapiens, UniProt P31645); test: Binding experiment for the 5HT-transporter ([3H]paroxetine, human platelet membranes); conditions: [3H]paroxetine 0.5 nM, read-out: h-5HTT pIC50 (converted)
T3 construct: Human platelet membranes (Oceanix Biosciences Corporation, Hanover, Md., USA) were thawed; tissue Oceanix Biosciences Corporation, Hanover, Md., USA; host or cells: human platelet membranes
T3 sequence (P31645 whole entry): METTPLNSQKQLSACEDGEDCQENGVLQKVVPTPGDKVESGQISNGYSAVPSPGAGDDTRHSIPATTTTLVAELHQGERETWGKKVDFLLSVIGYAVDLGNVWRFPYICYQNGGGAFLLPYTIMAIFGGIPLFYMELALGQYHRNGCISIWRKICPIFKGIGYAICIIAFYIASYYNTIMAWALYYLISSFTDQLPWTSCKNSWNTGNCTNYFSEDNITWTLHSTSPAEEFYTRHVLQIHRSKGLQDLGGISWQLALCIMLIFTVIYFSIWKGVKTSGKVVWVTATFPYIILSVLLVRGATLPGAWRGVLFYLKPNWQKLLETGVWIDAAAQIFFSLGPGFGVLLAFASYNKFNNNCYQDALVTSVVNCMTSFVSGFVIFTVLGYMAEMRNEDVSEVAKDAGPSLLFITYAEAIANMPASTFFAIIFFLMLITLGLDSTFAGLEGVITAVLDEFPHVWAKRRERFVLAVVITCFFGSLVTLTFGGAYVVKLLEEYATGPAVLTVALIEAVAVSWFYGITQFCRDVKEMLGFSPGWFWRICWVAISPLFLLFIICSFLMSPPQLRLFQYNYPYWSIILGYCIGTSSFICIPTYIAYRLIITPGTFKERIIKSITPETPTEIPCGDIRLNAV
Procedure: as §1
Human platelet membranes (Oceanix Biosciences Corporation, Hanover, Md., USA) were thawed, diluted in buffer (Tris-HCl 50 mM, 120 mM NaCl and 5 mM KCl) and quickly (max 3 s) homogenised with an Ultraturrax homogenizer. […] Incubation was stopped by rapid filtration of the incubation mixture over GF/B filters, pre-wetted with 0.1% polyethyleneamine, using a Filtermate196 harvester (Packard, Meriden, Conn.). Filters were rinsed extensively with ice-cold buffer and radioactivity on the filters was counted in a Topcount liquid scintillation counter (Packard, Meriden, Conn.). Data were expressed as cpm. Imipramine (at 1 μM final concentration) was used to determine the non-specific binding.
as §4

Row | Compound | IC50 [1] [nM] | IC50 [2] [nM] | IC50 [3] [nM]
1 | CCCC(=O)NCCCn1ccnc(NC2CCN(C/C(C)=C/c3ccccc3)CC2)c1=O [1-32] | 200 | 12.6 | 2510
2 | C/C(=C\c1ccccc1)CN1CCC(Nc2nccn(CCCNC(=O)CC3CCCC3)c2=O)CC1 [1-33] | 200 | 12.6 | 794
3 | C/C(=C\c1ccccc1)CN1CCC(Nc2nccn(-c3cccc(NC(=O)CC4CCCC4)c3)c2=O)CC1 [1-34] | 63.1 | 20 | 631
4 | C/C(=C\c1ccccc1)CN1CCC(Nc2nccn(-c3ccc(NC(=O)CC4CCCC4)cc3)c2=O)CC1 [1-35] | 251 | 50.1 | 1260
5 | C/C(=C\c1ccccc1)CN1CCC(Nc2nccn(Cc3ccc(CNC(=O)C4CCCCC4)cc3)c2=O)CC1 [1-36] | 158 | 39.8 | 398
6 | CC(=O)CN(C)CCCn1ccnc(NC2CCN(C/C(C)=C/c3ccccc3)CC2)c1=O [1-38] | 316 | 12.6 | 7940
7 | C/C(=C\c1ccccc1)CN1CCC(Nc2nccn(CCCNc3ccccc3)c2=O)CC1 [1-39] | 79.4 | 7.94 | 200
8 | C/C(=C\c1ccccc1)CN1CCC(Nc2nccn(CC(=O)Nc3ccccc3)c2=O)CC1 [1-40] | 50.1 | 3.16 | 1000
9 | C/C(=C\c1ccccc1)CN1CCC(Nc2nccn(CC(=O)N(C)c3ccccc3)c2=O)CC1 [1-41] | 100 | 3.16 | 398
10 | C/C(=C\c1ccccc1)CN1CCC(Nc2nccn(CC(=O)Nc3ccc(F)cc3)c2=O)CC1 [1-42] | 100 | 3.98 | 501
11 | C/C(=C\c1ccccc1)CN1CCC(Nc2nccn(-c3cccc(Nc4ccc(F)cc4)c3)c2=O)CC1 [1-43] | 12.6 | 3.16 | 50.1
12 | C/C(=C\c1ccccc1)CN1CCC(Nc2nccn(-c3ccc(Nc4ccc(F)cc4)cc3)c2=O)CC1 [1-44] | 100 | 5.01 | 794
13 | C/C(=C\c1ccccc1)CN1CCC(Nc2nccn(CC(=O)Nc3ccc(N4CCOCC4)cc3)c2=O)CC1 [1-45] | 126 | 39.8 | 2000
14 | C/C(=C\c1ccccc1)CN1CCC(Nc2nccn(CC(=O)NCc3ccccc3)c2=O)CC1 [1-48] | 126 | 5.01 | 2000
15 | C/C(=C\c1ccccc1)CN1CCC(Nc2nccn(-c3cccc(NCc4ccccc4)c3)c2=O)CC1 [1-49] | 25.1 | 3.98 | 251
16 | C/C(=C\c1ccccc1)CN1CCC(Nc2nccn(-c3ccc(NCc4ccccc4)cc3)c2=O)CC1 [1-50] | 100 | 3.16 | 631
17 | C/C(=C\c1ccccc1)CN1CCC(Nc2nccn(CCCN(C)Cc3ccccc3)c2=O)CC1 [1-51] | 50.1 | 1 | 1000
